# According to patent US20070184519A1, “Peptides, polypeptides, and proteins of reduced immunogenicity and methods for their production” (priority 2003, published 2007):
# Read-outs that look alike come from different tables or passages of the source. Ends that are not written are not given here.
# Assays:
# DRB1*0101 = biological target: T1, DRB1*0101 (Homo sapiens, UniProt P01903+P01911, A100R/D57E/F55L/F60I/F76Y/I96L/L162R/M171V/P40L/Q125E/R42F/V115G/Y59C); experiment: Class II peptide-binding assay DRB1*0101 (DR1)
# T1 construct: Epstein-Barr virus (EBV) transformed homozygous cell lines were used as sources of human HLA Class II molecules; endogenous in cells; host or cells: LG2 (EBV-transformed homozygous B cell line)
# DRB1*0301 = biological target: T2, DRB1*0301 (Homo sapiens, UniProt P01903+P01911, A100K/A102G/A103R/A169T/F55Y/I96L/K41T/L162R/M171V/P40S/Q125H/Q178H/Q39Y/R42S/S66N/T106N/T262R/W38E/Y61H); experiment: Class II peptide-binding assay DRB1*0301 (DR3)
# T2 construct: Epstein-Barr virus (EBV) transformed homozygous cell lines were used as sources of human HLA Class II molecules; endogenous in cells; host or cells: MAT (EBV-transformed homozygous B cell line)
# DRB1*0401 = biological target: T3, DRB1*0401 (Homo sapiens, UniProt P01903+P01911, A100K/A169T/F76Y/I96L/K127E/L162R/M171V/N62H/P40V/Q125Y/R42H/S133A/S149N/S66Y/V115G/V209L/W38E); experiment: Class II peptide-binding assay DRB1*0401 (DR4w4)
# T3 construct: Epstein-Barr virus (EBV) transformed homozygous cell lines were used as sources of human HLA Class II molecules; endogenous in cells; host or cells: PREISS (EBV-transformed homozygous B cell line)
# DRB1*0404 = biological target: T4, DRB1*0404 (Homo sapiens, UniProt P01903+P01911, A100R/A169T/F76Y/I96L/K127E/L162R/M171V/N62H/P40V/Q125Y/R42H/S133A/S149N/S66Y/V209L/W38E); experiment: Class II peptide-binding assay DRB1*0404 (DR4w14)
# T4 construct: Epstein-Barr virus (EBV) transformed homozygous cell lines were used as sources of human HLA Class II molecules; endogenous in cells; host or cells: BIN40 (EBV-transformed homozygous B cell line)
# DRB1*0405 = biological target: T5, DRB1*0405 (Homo sapiens, UniProt P01903+P01911, A100R/A169T/D86S/F76Y/I96L/K127E/L162R/M171V/N62H/P40V/Q125Y/R42H/S133A/S149N/S66Y/V115G/V209L/W38E); experiment: Class II peptide-binding assay DRB1*0405 (DR4w15)
# T5 construct: Epstein-Barr virus (EBV) transformed homozygous cell lines were used as sources of human HLA Class II molecules; endogenous in cells; host or cells: KT3 (EBV-transformed homozygous B cell line)
# DRB1*0701 = biological target: T6, DRB1*0701 (Homo sapiens, UniProt P01903+P01911, A100R/A102G/A103Q/D57E/D86V/E43K/F76Y/K127E/L162R/M171V/P40G/Q125H/Q99D/R33Q/R42Y/R54Q/S133A/S66F/T210M/V115G/Y107V/Y59L/Y89S); experiment: Class II peptide-binding assay DRB1*0701 (DR7)
# T6 construct: Epstein-Barr virus (EBV) transformed homozygous cell lines were used as sources of human HLA Class II molecules; endogenous in cells; host or cells: PITOUT (EBV-transformed homozygous B cell line)
# DRB1*0802 = biological target: T7, DRB1*0802 (Homo sapiens, UniProt P01903+P01911, A100R/A103L/A169T/F76Y/H45Y/I96F/K41T/L162R/M171V/P40S/Q125H/Q178H/Q39Y/Q99D/R218S/R42G/S66Y/V115G/W38E); experiment: Class II peptide-binding assay DRB1*0802 (DR8w2)
# T7 construct: Epstein-Barr virus (EBV) transformed homozygous cell lines were used as sources of human HLA Class II molecules; endogenous in cells; host or cells: OLL (EBV-transformed homozygous B cell line)
# DRB1*1101 = biological target: T8, DRB1*1101 (Homo sapiens, UniProt P01903+P01911, A100R/A169T/A87E/I96F/K41T/L162R/M171V/P40S/Q125H/Q178H/Q39Y/Q99D/R42S/S66Y/T262R/V115G/W38E); experiment: Class II peptide-binding assay DRB1*1101 (DR5w11)
# T8 construct: Epstein-Barr virus (EBV) transformed homozygous cell lines were used as sources of human HLA Class II molecules; endogenous in cells; host or cells: SWEIG (EBV-transformed homozygous B cell line)
# DRB5*0101 = biological target: T9, DRB5*0101 (Homo sapiens, UniProt P01903+Q30154); experiment: Class II peptide-binding assay DRB5*0101 (DR2w2a)
# T9 construct: Epstein-Barr virus (EBV) transformed homozygous cell lines were used as sources of human HLA Class II molecules; endogenous in cells; host or cells: GM3107 (EBV-transformed homozygous B cell line)
# DRB1*1302 = biological target: T10, DRB1*1302 (Homo sapiens, UniProt P01903+P01911, A100E/A169T/K41T/L162R/M171V/P40S/Q125H/Q178H/Q39Y/Q99D/R42S/S66N/T262R/V115G/W38E/Y61H); experiment: Class II peptide-binding assay DRB1*1302 (DR6w19)
# T10 construct: Epstein-Barr virus (EBV) transformed homozygous cell lines were used as sources of human HLA Class II molecules; endogenous in cells; host or cells: HO301 / H0301 (EBV-transformed homozygous B cell line)
# DRB3*0101 = biological target: T11, DRB3*0101 (Homo sapiens, UniProt P01903+P79483); experiment: Class II peptide-binding assay DRB3*0101 (DR52a)
# T11 construct: expressed in transfected cells; host or cells: transfected fibroblasts TR81.19
# DRB4*0101 = biological target: T12, DRB4*0101 (Homo sapiens, UniProt P01903+P13762, G164S); experiment: Class II peptide-binding assay DRB4*0101 (DRw53)
# T12 construct: expressed in transfected cells; host or cells: transfected fibroblasts L257.6
# DRB1*0901 = DRB1*0901 (Homo sapiens, UniProt P01903+P01911, A100R/A103E/D57H/D86V/F55Y/F60I/F76Y/I96F/K127E/L162R/M171V/P40D/Q125H/Q99R/R33Q/R42F/S133A/S66N/T210M/V115G/W38K/Y107V/Y59G/Y89S); experiment: Class II peptide-binding assay DRB1*0901 (DR9)
# [1] = known HLA-DR and DQ restricted epitopes, Table 6
# T2 sequence (P01903 26-254, other chains not shown): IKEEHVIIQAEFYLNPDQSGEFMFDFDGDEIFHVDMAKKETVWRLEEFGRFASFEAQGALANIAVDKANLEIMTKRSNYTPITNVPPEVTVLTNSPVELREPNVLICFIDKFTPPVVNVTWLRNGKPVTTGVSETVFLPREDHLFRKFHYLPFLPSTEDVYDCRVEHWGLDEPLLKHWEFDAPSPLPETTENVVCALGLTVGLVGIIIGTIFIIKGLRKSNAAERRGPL
# T10 sequence (P01903 26-254, other chains not shown): as above
# T8 sequence (P01903 26-254, other chains not shown): as above
Molecule,IC50 (DRB1*0101) [nM],IC50 (DRB1*0301) [nM],IC50 (DRB1*0401) [nM],IC50 (DRB1*0405) [nM],IC50 (DRB1*0802) [nM],IC50 (DRB1*1101) [nM],IC50 (DRB5*0101) [nM],IC50 (DRB4*0101) [nM],further results
VLEEKLEKEDFTRGK,–,–,–,–,–,–,–,–,"IC50 (DRB3*0101; IFNb 15-mer peptides, Table 5D): 1390 nM; IC50 (DRB4*0101; IFNb 15-mer peptides, Table 5D): 19100 nM; IC50 (DRB5*0101; IFNb 15-mer peptides, Table 5D): 4610 nM"
DTGRKLFRVYSNFLR,18,1280,46,39,–,26,12,1130,IC50 (DRB1*0901): 161 nM; IC50 (DRB1*1302): 7.5 nM
FNNFTVSFWLRVPKVSASHLEQY,417,–,–,–,581,–,2860,1680,IC50 (DRB1*0301; [1]): > 20000 nM; IC50 (DRB1*0401; [1]): 93 nM; IC50 (DRB1*0404; [1]): 4540 nM; IC50 (DRB1*0701; [1]): 57 nM; IC50 (DRB1*1101; [1]): 8.3 nM; IC50 (DRB1*1302; [1]): 6370 nM; IC50 (DRB3*0101): 2820 nM
CC[C@H](C)[C@H](NC(=O)[C@H](CC(N)=O)NC(=O)[C@@H](N)CCC(N)=O)C(=O)N[C@@H](CC(C)C)C(=O)N[C@@H](CC(C)C)C(=O)N[C@@H](CO)C(=O)N[C@@H](CC(N)=O)C(=O)N[C@@H](C)C(=O)N1CCC[C@H]1C(=O)N[C@@H](CC(C)C)C(=O)NCC(=O)N1CCC[C@H]1C(=O)N[C@@H](CCC(N)=O)C(=O)N[C@@H](Cc1ccccc1)C(=O)N1CCC[C@H]1C(=O)O,–,–,–,–,–,–,–,–,IC50 (DRB1*0404; [1]): 143 nM; IC50 (DRB1*0701; [1]): 296 nM; IC50 (DRB1*0802; [1]): 13400 nM; IC50 (DRB1*1302; [1]): 5.3 nM; IC50 (DRB3*0101; [1]): > 20000 nM; IC50 (DRB5*0101; [1]): > 20000 nM
YKTIAYDEEARR,–,–,–,–,–,–,> 20000,> 20000,IC50 (DRB3*0101): > 20000 nM
TSLCFSESIPTPSNR,–,–,–,–,–,–,–,–,"IC50 (DRB3*0101; inhibition of radiolabeled probe binding, — read as no appreciable binding): 22600 nM"
CC(C)C[C@H](NC(=O)[C@H](CC(=O)O)NC(=O)[C@H](CC(N)=O)NC(=O)[C@H](CO)NC(=O)[C@H](Cc1ccc(O)cc1)NC(=O)[C@@H](NC(=O)[C@H](CCCNC(=N)N)NC(=O)[C@H](Cc1ccccc1)NC(=O)[C@H](CC(C)C)NC(=O)[C@H](CCCCN)NC(=O)[C@H](CCCNC(=N)N)NC(=O)[C@H](Cc1ccccc1)NC(=O)[C@@H](NC(=O)[C@@H](N)CC(=O)O)[C@@H](C)O)C(C)C)C(=O)N[C@@H](CCCNC(=N)N)C(=O)O,85,11500,24,–,75,3.6,–,1390,–

# Continued, in another order:
IC50 (DRB1*0101) [nM],IC50 (DRB1*0301) [nM],IC50 (DRB1*0401) [nM],IC50 (DRB1*0405) [nM],IC50 (DRB1*0802) [nM],IC50 (DRB1*1101) [nM],IC50 (DRB5*0101) [nM],Molecule,IC50 (DRB4*0101) [nM],further results
14,13000,8.5,11,240,10,804,CC(C)C[C@H](NC(=O)CN)C(=O)N[C@@H](CCCNC(=N)N)C(=O)N[C@@H](CO)C(=O)N[C@@H](CC(C)C)C(=O)N[C@H](C(=O)N[C@H](C(=O)N[C@@H](CC(C)C)C(=O)N[C@@H](CC(C)C)C(=O)N[C@@H](CC(=O)O)C(=O)N[C@@H](C)C(=O)N[C@@H](CC(C)C)C(=O)NCC(=O)N[C@@H](C)C(=O)N[C@@H](CCC(N)=O)C(=O)O)[C@@H](C)O)[C@@H](C)O,–,IC50 (DRB1*0404): 9.3 nM; IC50 (DRB1*0701): 10300 nM
68,–,25,48,–,5.3,80,CC(C)C[C@H](NC(=O)[C@H](Cc1ccccc1)NC(=O)[C@H](CC(N)=O)NC(=O)[C@H](CO)NC(=O)[C@H](Cc1ccc(O)cc1)NC(=O)[C@@H](NC(=O)[C@H](CCCNC(=N)N)NC(=O)[C@H](Cc1ccccc1)NC(=O)[C@H](C)NC(=O)[C@H](CCCCN)NC(=O)[C@H](CCCNC(=N)N)NC(=O)[C@H](Cc1ccccc1)NC(=O)[C@@H](NC(=O)[C@@H](N)CC(=O)O)[C@@H](C)O)C(C)C)C(=O)N[C@@H](CCCNC(=N)N)C(=O)O,–,IC50 (DRB1*1302): 123 nM
